The values below come from US20240132463A1, “SUBSTITUTED N-(2-(2,6-DIOXOPIPERIDIN-3-YL)-1,3-DIOXOISOINDOLIN-5-YL)ARYLSULFONAMIDE ANALOGS AS MODULATORS OF CEREBLON PROTEIN” (ST. JUDE CHILDREN'S RESEARCH HOSPITAL, INC., priority 2020, published 2024).

As a reminder, the EC50 is the concentration needed to bring the measured effect to its halfway point. Higher therefore signals lower potency in that assay. For orientation: Dmax means the greatest extent of degradation seen. A high value points to a fuller loss of target. A word on the Papp: it is the rate of passage across a membrane or cell layer, normalised by area and donor concentration. Usually IC50 stands for the concentration that gives 50% inhibition.

Like-named read-outs stand apart in the source and are kept apart here.

One series concerns cells. The note with it: Ref. 13; cited from earlier work.
The subject of a further series is human cancer cell lines. The experiment in a line: Cell proliferation in human cancer cell lines. The class given is cell-based. The conditions noted are these: data not shown.
Series [1] has as its system MV4-11 cells. The series is described as follows: MV-4-11 cell viability assay. In kind it is cell-based, human. The note with it: 72 hours, Cell Titer Glo. A general note: In ATP-based viability assays light output follows the ATP content of the culture.
Method: (§2) MV-4-11 cell line was purchased from the American Type Culture Collection (ATCC, Manassas, VA). The cells were cultured according to recommendations in IMDM cell culture media (ATCC). Exponentially growing MV-4-11 cells were plated at 1,000 cells per well in Corning 8804BC white 384-well assay plates and incubated overnight at 37° C. in a humidified 5% CO2 incubator. Compounds were transferred to the assay plate from a dose-response plate using a Pintool on a Biomek FXP Laboratory Automation Workstation (Beckman Coulter). Cytotoxicity was determined following 72 hours of incubation using Promega Cell Titer Glo reagent according to the manufacturer's recommendation. Luminescence was measured on an Envision plate reader (Perkin-Elmer).
(§3) Compounds were screened in human cancer cell lines and each cell line was cultured in the complete medium recommended by the vendor and seeded in Corning 8804BC white 384-well assay plates at density of 1,000, 1,000, 1,000, 1,500 and 7,500 cells per well, for MV4-11, HD-MB03, MB004, MB002 and MHH-CALL4 cells respectively. After overnight incubation at 37° C. in a humidified 5% CO2 incubator, cells were treated with compounds in dose-response format using a Pintool on a Biomek FXP Laboratory Automation Workstation (Beckman Coulter). […] After 72 h incubation, cell proliferation was assessed using Cell Titer-Glo (CTG) luminescent cell viability assay (Promega) according to the manufacturer's instruction. Luminescence signal was measured using an Envision plate reader (Perkin-Elmer).
Another series deals with IKZF1 (Homo sapiens (Human), UniProt Q13422+Q96SW2). The series is described as follows: IKZF1 degradation by immunoblot in MV4-11 cells. In kind it is cell-based. The conditions noted are these: for DC50: read-out: IKZF1 DC50, 24 h treatment. On the procedure: (§1) MV4-11 cells were seeded in 6-well plates (1×10^6 cells per well). After overnight incubation, the cells were treated with indicated concentrations for specific timepoints. […] After blocking the membrane with LI-COR TBS blocking buffer and incubation in primary antibody overnight, the corresponding protein signals were detected using IRDye secondary antibodies and Odyssey Imaging System. Image Studio Lite Ver 5.2 was used for blot quantification. […] IRDye® 800CW Goat anti-Mouse IgG Secondary Antibody and IRDye® 68ORD Goat anti-Rabbit IgG Secondary Antibody were used as secondary antibodies.
A general note: A western blot detects proteins with antibodies after separation by electrophoresis.

Another series deals with MDCKII-MDR1 cells. The series is described as follows: MDCKII-MDR1 permeability assay. In kind it is in vitro ADME. The note with it: permeability in MDCK-MDR1 cells. On the procedure:
High throughput […]1 permeability was performed in the Transwell® 0.4 μm polycarbonate membrane 96-well system with modified methods (Refs. 38-39). […]1 cells were maintained at 37° C. in a humidified incubator with an atmosphere of 5% CO2. The cells were cultured in 75 cm^2 flasks with Dulbecco's Modified Eagle's Medium (DMEM) containing 10% fetal bovine serum (FBS), 1% non-essential amino acids (NEAA), 100 units/ml of penicillin, and 100 μg/ml of streptomycin. The […]1 cells were seeded onto inserts at a density of 2×10^4 and 1×10^4 cells/insert separately. The medium in the wells was exchanged each other day, and the trans epithelial electrical resistance (TEER) value was measured using an epithelial volt-ohm meter (Millipore, Billerica, Massachusetts). […] For transport experiments, each cultured monolayer on the 96-well plate was washed twice with a transport buffer (HBSS/25 mM HEPES, pH 7.4). The permeability assay was initiated by the addition of each compound solution (10 μmol/L) into inserts (apical side, A) or receivers (basolateral side, B). The MDCKII-MDR1 cell monolayers were incubated for 1 hour at 37° C. Fractions were collected from receivers (if apical to basal permeability) or inserts (if basal to apical permeability), and concentrations were assessed by UPLC/MS (Waters; Milford, MA). All compounds were tested in triplicates. The A→B (or B→A) apparent permeability coefficients (Papp) of each compound were calculated using the equation, Papp=dQ/dt×1/AC0, where dQ/dt equals the flux of a drug across the monolayer, A equals the total insert well surface area, and C0 is the initial concentration of substrate in the donor compartment. The efflux ratio was determined by dividing the Papp in the B-A direction by the Papp in the A-B direction.

The next series in a line: Aqueous solubility assay. In kind it is physicochemical. The conditions noted are these: aqueous solubility at pH = 7.4, triplicate. On the procedure:
Solubility assays were carried out on a Biomek FX lab automation workstation (Beckman Coulter, Inc., Fullerton, CA) using μSOL Evolution software (pION Inc., Woburn, MA). 10 μL of 10 mM compound stock (in DMSO) was added to 190 μL 1-propanol to make a reference stock plate. 5 μL from this reference stock plate were mixed with 70 μL 1-propanol and 75 μL citrate phosphate-buffered saline (PBS;isotonic) to make the reference plate, and the UV spectrum (250-500 nm) of the reference plate was read. 6 μL of 10 mM test compound stock was added to 594 μL buffer in a 96-well storage plate and mixed. The storage plate was sealed and incubated at RT for 18 h. The suspension was then filtered through a 96-well filter plate (pION Inc., Woburn, MA). 75 μL of filtrate was mixed with 75 μL 1-propanol to make the sample plate, and the UV spectrum of the sample plate was read. Calculations were carried out with μSOL Evolution software based on the area under the curve (AUC) of the UV spectrum of the sample and reference plates. All compounds were tested in triplicate.

Another series has as its target GSPT1 HiBiT tag protein (Homo sapiens (Human), UniProt P15170+Q96SW2). The series is described as follows: hGSPT1 HiBiT assay. The note with it: read-out: GSPT1 HiBit EC50; HEK293 hGSPT1 HiBiT cells, 4 hrs incubation. The class given is cell-based. On the procedure: hGSPT1 HiBiT cell line. HEK293_hGSPT1_HiBiT tagged cells were generated using CRISPR-Cas12a technology. Briefly, ˜400,000 HEK293 cells were transiently co-transfecting with precomplexed ribonuclear proteins (RNPs) consisting of […] of crRNA (IDT), 62 pmol of Cas12a protein (IDT), 3 ug of ssODN donor (IDT; AltR™ modifications), 78 pmol of electroporation enhancer (IDT), and 200 ng of pMaxGFP (Lonza). The transfection was performed via nucleofection (Lonza, 4D-Nucleofector™ X-unit) using solution P3 and program CM-130 in a small (20 ul) cuvette according to the manufacturer's recommended protocol. Five days post-nucleofection, cells were single cell sorted for GFP+(transfected) cells by FACs in 96-well plates and clonally selected. Clones were screened and verified for the desired modification via targeted deep sequencing using gene specific primers with partial Illumina adapter overhangs as previously described.^58 In brief, clonal cell pellets were harvested, lysed and used to generate gene specific amplicons with partial Illumina adapters in PCR #1. Amplicons were indexed in PCR #2 and pooled with other targeted amplicons for other loci to create sequence diversity. Additionally, 10% PhiX Sequencing Control V3 (Illumina) was added to the pooled amplicon library prior to running the sample on an Miseq Sequencer System (Illumina) to generate paired 2×250 bp reads. […] Editing construct sequences and screening primers are listed below in Table 4.
hGSPT1 HiBiT assay. […] After 4 hrs incubation, the level of GSPT1 HiBiT tag protein was evaluated using Nano-Glo® HiBiT Lytic Detection System (Promega) according to the manufacturer's instruction.

For another series, the target named is GSPT1 (Homo sapiens (Human), UniProt P15170+Q96SW2). The experiment in a line: GSPT1 degradation by immunoblot in MV4-11 cells. In kind it is cell-based. On the procedure: as §1
Sequence of GSPT1 (P15170 whole entry): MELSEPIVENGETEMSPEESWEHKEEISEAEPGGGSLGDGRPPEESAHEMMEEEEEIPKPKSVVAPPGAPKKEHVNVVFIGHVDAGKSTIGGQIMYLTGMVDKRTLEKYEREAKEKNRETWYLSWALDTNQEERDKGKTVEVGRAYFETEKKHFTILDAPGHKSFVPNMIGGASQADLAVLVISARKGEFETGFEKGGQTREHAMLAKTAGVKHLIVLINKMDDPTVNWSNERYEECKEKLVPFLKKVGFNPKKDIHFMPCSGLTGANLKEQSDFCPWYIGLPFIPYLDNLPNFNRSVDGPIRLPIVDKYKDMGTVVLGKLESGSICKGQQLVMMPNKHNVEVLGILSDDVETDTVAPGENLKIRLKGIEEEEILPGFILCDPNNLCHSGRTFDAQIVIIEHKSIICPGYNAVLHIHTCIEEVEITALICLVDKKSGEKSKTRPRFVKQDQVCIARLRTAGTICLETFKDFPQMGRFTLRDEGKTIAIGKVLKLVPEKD
Sequence of GSPT1 (Q96SW2 whole entry): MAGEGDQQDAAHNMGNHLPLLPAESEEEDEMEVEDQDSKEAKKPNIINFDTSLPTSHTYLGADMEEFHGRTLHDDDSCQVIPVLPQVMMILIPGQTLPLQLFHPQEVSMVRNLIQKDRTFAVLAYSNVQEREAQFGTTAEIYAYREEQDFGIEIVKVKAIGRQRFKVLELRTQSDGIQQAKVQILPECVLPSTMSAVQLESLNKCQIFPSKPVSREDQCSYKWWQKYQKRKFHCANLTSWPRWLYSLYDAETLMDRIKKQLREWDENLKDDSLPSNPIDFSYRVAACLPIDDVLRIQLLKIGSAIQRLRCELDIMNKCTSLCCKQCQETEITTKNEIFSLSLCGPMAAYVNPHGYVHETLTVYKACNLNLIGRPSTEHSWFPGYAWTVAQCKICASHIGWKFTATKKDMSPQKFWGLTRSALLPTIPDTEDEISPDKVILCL
Sequence of GSPT1 (Q16531 whole entry partner): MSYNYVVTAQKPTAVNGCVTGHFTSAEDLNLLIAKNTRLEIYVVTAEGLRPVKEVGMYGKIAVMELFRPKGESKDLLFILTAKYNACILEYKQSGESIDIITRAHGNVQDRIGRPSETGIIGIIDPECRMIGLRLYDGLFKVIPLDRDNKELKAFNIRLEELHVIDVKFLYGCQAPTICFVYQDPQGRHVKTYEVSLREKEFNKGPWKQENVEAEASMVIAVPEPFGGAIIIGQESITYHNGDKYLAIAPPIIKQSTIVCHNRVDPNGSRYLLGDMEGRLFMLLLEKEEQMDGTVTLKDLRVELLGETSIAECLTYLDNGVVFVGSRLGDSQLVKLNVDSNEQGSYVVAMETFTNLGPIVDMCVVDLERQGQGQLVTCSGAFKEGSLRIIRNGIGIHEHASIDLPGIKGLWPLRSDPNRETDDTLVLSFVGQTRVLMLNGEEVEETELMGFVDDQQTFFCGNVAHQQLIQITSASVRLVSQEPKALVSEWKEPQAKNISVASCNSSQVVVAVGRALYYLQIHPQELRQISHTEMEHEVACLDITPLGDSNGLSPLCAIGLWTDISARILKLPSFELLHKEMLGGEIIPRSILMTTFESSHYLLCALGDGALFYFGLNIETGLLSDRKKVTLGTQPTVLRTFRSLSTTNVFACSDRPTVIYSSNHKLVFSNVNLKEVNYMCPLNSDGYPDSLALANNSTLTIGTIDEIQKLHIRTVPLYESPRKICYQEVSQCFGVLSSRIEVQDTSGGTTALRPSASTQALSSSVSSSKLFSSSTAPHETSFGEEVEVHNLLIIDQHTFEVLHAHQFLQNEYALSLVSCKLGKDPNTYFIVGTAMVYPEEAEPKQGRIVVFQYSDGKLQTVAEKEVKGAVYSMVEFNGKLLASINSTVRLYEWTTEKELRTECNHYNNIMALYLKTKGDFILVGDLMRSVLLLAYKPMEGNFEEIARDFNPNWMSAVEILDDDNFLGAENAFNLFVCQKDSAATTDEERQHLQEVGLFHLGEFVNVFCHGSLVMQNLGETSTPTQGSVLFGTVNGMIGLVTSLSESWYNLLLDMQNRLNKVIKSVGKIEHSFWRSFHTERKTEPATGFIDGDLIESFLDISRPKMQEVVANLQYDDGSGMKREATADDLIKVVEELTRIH
In another series the target is 6×His-CRBN-DDB1 protein (Homo sapiens (Human), UniProt Q96SW2). The series is described as follows: CRBN fluorescence polarization assay. In kind it is binding. On the procedure: 6×His-CRBN-DDB1 protein (200 nM) and Cy5-O-Len probe (30 nM) were combined in 20 mM HEPES pH 7, 150 mM NaCl, 0.005% Tween-20 assay buffer. […] The plates were incubated in the dark for 1 hour at room temperature and then read on an Envision plate reader (PerkinElmer, Massachusetts, USA).
Sequence of 6×His-CRBN-DDB1 protein (Q96SW2 whole entry): as the sequence (Q96SW2 whole entry) above
Sequence of 6×His-CRBN-DDB1 protein (Q16531 whole entry partner): as the sequence (Q16531 whole entry partner) above
In general terms: Fluorescence polarisation rises when a labelled molecule tumbles more slowly, as on binding a larger partner.

The subject of series [2] is MV4-11 cells. The experiment in a line: Lenalidomide competition assay. The class given is cell-based, human. The conditions noted are these: co-treatment with lenalidomide 10 μM, 72 h.
Method: as §3
In a further series the test system is caspase 3/7. The experiment in a line: Caspase 3/7 activity assay. The note with it: MV4-11 cells, Caspase-Glo, 4, 8 and 24 hours, 10 and 100 nM. The class given is cell-based, human.
Series [3] has as its system CRBN knockout MV4-11 cells. The experiment in a line: Cell viability in CRBN knockout MV4-11 cells. The conditions noted are these: CRBN knockout vs wild-type MV4-11 cells. The class given is cell-based, human.
Method: as §2
CRBN-deficient MV4:11 cells were generated using CRISPR-Cas9 technology. […] Five days post nucleofection, cells were single-cell sorted by FACs to enrich for GFP+(transfected) cells, clonally selected, and verified for the desired targeted modification via targeted deep sequencing using gene specific primers with partial Illumina adapter overhangs (hCRBN.F—5′-[sequence]-3′ (SEQID: 6) and hCRBN.R—5′-[sequence]-3′, (SEQID: 7); overhangs not shown) and analyzed using CRIS.py (Ref. 36).
[4] abbreviates: CRBN FP IC50, cereblon binding, class symbols.
Setting [5] is: fluorescence polarization, Cy5-O-Len probe, read-out: CRBN IC50.

Sequence of GSPT1 HiBiT tag protein (P15170 whole entry): as the sequence (P15170 whole entry) above
Sequence of GSPT1 HiBiT tag protein (Q96SW2 whole entry): as the sequence (Q96SW2 whole entry) above
Sequence of GSPT1 HiBiT tag protein (Q16531 whole entry partner): as the sequence (Q16531 whole entry partner) above

On to `O=C1CC[C@H](N2Cc3c(OCc4ccc(CN5CCOCC5)cc4)cccc3C2=O)C(=O)N1` [CC-220, (S)-3-(4-((4-(morpholinomethyl)benzyl)oxy)-1-oxoisoindolin-2-yl)piperidine-2,6-dione], for which, in the series with cells, the “potency in cells relative to lenalidomide” value is 10 fold.

Turning to `Cc1ccc(NC(=O)NCc2ccc3c(c2)CN(C2CCC(=O)NC2=O)C3=O)cc1Cl` (centres unmarked) [CC-885, N-(3-chloro-4-methylphenyl)-N′-[[2-(2,6-dioxo-3-piperidinyl)-2,3-dihydro-1-oxo-1H-isoindol-5-yl]methyl]-urea], in the series on human cancer cell lines, the “antiproliferative effects in cell lines” value is “displayed antiproliferative effects in all four cell lines”.

In the series on MV4-11 cells [1] (Homo sapiens), `O=C1CCC(N2Cc3cc(CNC(=O)C(F)(F)c4ccc(Cl)cc4)ccc3C2=O)C(=O)N1` (centres unmarked) [CC-90009, 2-(4-chlorophenyl)-N-((2-(2,6-dioxopiperidin-3-yl)-1-oxoisoindolin-5-yl)methyl)-2,2-difluoroacetamide, reference compound] displayed an EC50 of 62 nM. Also, the Dmax at 10 µM on IKZF1 (MV4-11 cells, 4 hours, at 10 μM) was determined as 55%. In addition, the DC50 at IKZF1 (MV4-11 cells) came to 10 nM; at IKZF1 (MV4-11 cells, listed as CC90009) it was 9.9 nM. In the series on MDCKII-MDR1 cells, this molecule returned a Papp of 4.9 ×10⁻⁶ cm/s. The molecule also showed a Sol. in the series “Aqueous solubility assay” of 77 µM.

On to `O=C1CCC(N2C(=O)c3ccc(NS(=O)(=O)c4cccc(OC(F)(F)F)c4)cc3C2=O)C(=O)N1` (centres unmarked) [Compound 2, N-(2-(2,6-dioxopiperidin-3-yl)-1,3-dioxoisoindolin-5-yl)-3-(trifluoromethoxy)benzenesulfonamide], for which, on GSPT1 HiBiT tag protein, the DC50 is above 10000 nM. Also, the “MV4-11 EC50” value with MV4-11 cells [1] was “no activity”. At GSPT1 (MV4-11 cells (FIG. 6)), the “effect on protein levels of GSPT1 by immunoblotting” value is recorded as “no effects”. Besides, the “selectivity window GSPT1 over IKZF1 (DC50)” value at GSPT1 (MV4-11 cells, DC50 values at 24 hours) is 30 fold. The IC50 on 6×His-CRBN-DDB1 protein (setting [4]) was below 1000 nM; against 6×His-CRBN-DDB1 protein (CRBN IC50, fluorescence polarization, Cy5-O-Len probe), 72 nM; at 6×His-CRBN-DDB1 protein (setting [5]), 54 nM. Besides, at IKZF1 (MV4-11 cells (FIG. 6)), the “effect on protein levels of IKZF1 by immunoblotting” value is “no effects”. Moreover, the IKZF1 protein abundance entry at IKZF1 (MV4-11 cells, treatment over 24 hours) is “dose-dependent decrease”. This molecule also gave a Papp in the series on MDCKII-MDR1 cells of 4 ×10⁻⁶ cm/s. The same molecule returned a Sol. in the series “Aqueous solubility assay” of 64 µM.

Regarding `Cc1c(Cl)cccc1S(=O)(=O)Nc1ccc2c(c1)C(=O)N(C1CCC(=O)NC1=O)C2=O` (centres unmarked) [Compound 5, 3-chloro-N-(2-(2,6-dioxopiperidin-3-yl)-1,3-dioxoisoindolin-5-yl)-2-methylbenzenesulfonamide], in the series on MV4-11 cells [2], the “antiproliferative effect in presence of lenalidomide” value was “abrogating the antiproliferative effects”. In addition, at GSPT1 (MV4-11 cells, 24 hours, at 100 nM), the GSPT1 protein degradation is reported as 90%. Besides, the caspase activation entry in the series with caspase 3/7 is recorded as “only observed at the 24 hour time point”. Besides, the “IKZF1 degradation at 4 hours” value at IKZF1 (MV4-11 cells, 4 hours, any concentration tested) is on record as “did not significantly degrade IKZF1”. This molecule also yielded a Papp in the series on MDCKII-MDR1 cells of 3.6 ×10⁻⁶ cm/s. Also, in series [3], the “antiproliferative activity in absence of CRBN” value is reported as “abolished”. For the same molecule, the Sol. in the series “Aqueous solubility assay” stood at 64 µM.

For `O=C1CCC(N2C(=O)c3ccc(NS(=O)(=O)c4ccccc4)cc3C2=O)C(=O)N1` (centres unmarked) [Compound 20, N-(2-(2,6-dioxopiperidin-3-yl)-1,3-dioxoisoindolin-5-yl)benzenesulfonamide], the DC50 at GSPT1 HiBiT tag protein is above 10000 nM. In the series on MV4-11 cells [1], the “MV4-11 EC50” value is “inactive”. Moreover, the results for the IC50 at 6×His-CRBN-DDB1 protein (setting [4]) and at 6×His-CRBN-DDB1 protein (setting [5]) were below 1000 nM and 72 nM, respectively. In the series with MDCKII-MDR1 cells, the Papp amounted to 3.6 ×10⁻⁶ cm/s. In addition, in “Aqueous solubility assay”, the Sol. was found to be 71 µM.
